Legend:
[1] = system: hypersensitivity following ligation of spinal nerves; conditions: rats, cited from earlier work
[2] = system: hyperalgesia; conditions: rodents, systemic delivery; cited from earlier work
[3] = system: vagus nerve preparations; conditions: guinea pig and human vagus nerve preparations in vitro; cited from earlier work
[4] = system: acute and chronic pain; conditions: animal studies; cited from earlier work
[5] = system: RPE cells; conditions: cited from earlier work
[6] = system: MIA model of osteoarthritis; assay: MIA model of osteoarthritis pain (von Frey, weight distribution, grip strength); type: in vivo, male Sprague Dawley rats; conditions: 3, 10 and 30 mg/kg orally, one hour after dosing, FIG. 2
From the text: Example 5: Effect of Compounds on Osteoarthritis Pain
Injection of monosodium iodoacetate (MIA) into a joint (Kalbhen, 1987) inhibits the activity of glyceraldehyde-3-phosphate dehydrogenase in chondrocytes, resulting in disruption of glycolysis and eventually in cell death. The progressive loss of chondrocytes results in histological and morphological changes of the articular cartilage, closely resembling those seen in osteoarthritis patients.
The osteoarthritis was induced in 200 g male Sprague Dawley rats. […]
Typically during disease progression, there was an inflammation period of 0-7 days post-intra-articular injection followed by progressive degeneration of the cartilage and subchondral bone from days 14-55. […] Tactile allodynia was measured via von Frey assay, hind limb paw weight distribution was monitored using an incapacitence tester (Columbus Instruments, Columbus, Ohio, USA) and hind limb grip strength was measured using a grip strength meter (Columbus Instruments, Columbus, Ohio, USA). […] Hind paw weight distribution was determined by placing rats in a chamber so that each hind paw rests on a separate force plate of the incapacitence tester. The force exerted by each hind limb (measured in grams) is averaged over a 3 second period. Three measurements were taken for each rat, and the change in hind paw weight distribution calculated. […]

[7] = system: paclitaxel model of cancer pain; assay: Paclitaxel-induced allodynia in Sprague Dawley rats; type: in vivo, male Sprague Dawley rats; conditions: 10 mg/kg orally
Experimental: Example 8: Paclitaxel-Induced Allodynia in Sprague Dawley Rats
Male Sprague Dawley rats [200-250 g] (Harlan Laboratories Inc., Livermore, Calif.) were housed three per cage and maintained in a humidity-controlled (40-60%) and temperature-controlled (68-72° F.) facility on a 12 h:12 h light/dark cycle (lights on at 6:30 am) with free access to food (Harlan Teklad, Orange, Calif., Rodent Diet 8604) and water. Rats were allowed one week of habituation to the animal facility before starting treatment.
Rats were treated intraperitoneally, with 2 mg/kg of paclitaxel (Sigma Aldrich, Saint Louis, Mo.) in 10% Cremophor vehicle (500 μL) on days 0, 2, 4, and 6.
Tactile allodynia was tested using von Frey filaments. Briefly, the von Frey assay was performed using the standardized up down method with von Frey filaments, that determine the tactile sensitivity of the paw. By applying the increasingly or decreasingly thicker filaments to the paw in a logarithmic scale of actual force, a linear scale of perceived intensity is determined.
Eight days after the start of paclitaxel dosing, a baseline measurement (von Frey assay) was performed prior to dosing of compounds. […] As a positive control, rats were dosed intraperitoneally with 100 mg/kg gabapentin in water. The dosing volume for oral and peritoneal treatment was 500 μL. […]

[8] = system: FCA-induced hyperalgesia model of inflammatory pain; assay: FCA-induced hyperalgesia in rats; type: in vivo, male Sprague Dawley rats; conditions: 0.1, 1, 3, 10 and 30 mg/kg orally, 1 h post dosing, FIG. 1
Experimental: Example 7: Effect of Compounds on FCA-Induced Hyperalgesia in Rats
Male Sprague Dawley rats from Harlan (200-225 g when received) were used. Upon arrival, rats were housed 4 per cage in shoe-box polycarbonate cages with wire tops, wood chip bedding and suspended food and water bottles. Animals were acclimated for 5-7 days prior to being injected with Freund's complete adjuvant (FCA) (Sigma; catalog #5881).
2 days (48 h) before testing compounds, baseline readings of all rats were taken right before FCA injection. Rats were then injected with 50 μL FCA containing 1 mg/mL Mtb (Mycobacterium tuberculosis) in right hind footpad under inhalation anesthesia (isoflurane). 48 hours after FCA injection, readings were taken as pre-dosing baseline and then rats were dosed orally with 0.5 mL of vehicle or compound (0.5 mL per 250 g rat). Readings were taken again at 1 h post dosing. All readings were taken with an Analgesy-Meter (Ugo Basile) which measures mechanical hyperalgesia via paw pressure.
FCA-induced hyperalgesia was tested with an Analgesy-Meter. Briefly, the Analgesy Meter applied an increasing pressure to the right hind paw. The paw withdrawal threshold was the pressure leading to withdrawal.
Meanwhile a group of rats were dosed orally with 50 mg/kg of Diclofenac as a positive control. Readings were taken again at 1 h post dosing. Dosing volume was 500 μL per 250 g rat.

[9] = system: Streptozotocin-Induced Painful Diabetic Peripheral Neuropathy (PDPN) Model; assay: Streptozotocin-induced painful diabetic peripheral neuropathy (PDPN) model; type: in vivo, male Sprague-Dawley rats; conditions: 10 mg/kg orally in 0.5% methylcellulose; 1, 4 and 6 hours post-dosing, FIG. 17 and FIG. 18
Experimental: Example 12: Streptozotocin-Induced Painful Diabetic Peripheral Neuropathy (PDPN) Model
Male Sprague-Dawley rats were injected intraperitoneally with 50 mg/kg of streptozotocin (STZ) in sodium citrate buffer. 10% sucrose water was provided ad libitum for the first 48 hours post-STZ followed by regular drinking water. Rats were monitored once weekly for blood glucose levels and body weights. Development of tactile allodynia over time was analyzed using Von Frey filaments and a 50% withdrawal threshold was determined using Dixon's up-down procedure. […] Tactile allodynia was evaluated at 1, 4 and 6 hours post-dosing.

[10] = system: allergic contact dermatitis; conditions: mouse, injection; cited from earlier work
[11] = system: bovine nasal cartilage explants; conditions: bovine nasal cartilage explants in vitro; cited from earlier work
[12] = system: capsaicin-induced hyperalgesia and allodynia; conditions: humans, topical administration; cited from earlier work
[13] = system: histamine-induced responses; conditions: human skin, topical administration; cited from earlier work
[14] = system: bone marrow-derived osteoblasts/stromal cells; conditions: in vitro; cited from earlier work
[15] = system: ovariectomy-induced bone loss; conditions: in vivo; cited from earlier work
[16] = system: EAE; conditions: cited from earlier work
[17] = system: cough; conditions: conscious guinea-pigs, administration prior to citric acid; cited from earlier work
[18] = system: atherosclerosis; conditions: cited from earlier work
[19] = system: EAU; conditions: EAU model in mice; cited from earlier work
[20] = system: capsaicin-induced coughs; conditions: mice; cited from earlier work
[21] = system: CB1; conditions: exogenous administration; cited from earlier work

COc1ccc(C(=O)c2c(C)n(CCN3CCOCC3)c3cc(I)ccc23)cc1 [AM630]
inhibition of the AM1241 effect on tactile and thermal hypersensitivity [1]: inhibited

CN1CCCCC1Cn1cc(C(=O)c2cc([N+](=O)[O-])ccc2I)c2ccccc21 (stereo not shown) [AM1241]
hyperalgesia induced in the carrageenan, capsaicin, and formalin models [2]: suppresses
tactile and thermal hypersensitivity ([1]; local (subcutaneous) or systemic administration, chronic constriction injury model): reverses

CCCCCCC(C)(C)c1ccc([C@@H]2C[C@H](O)CC[C@H]2CCCO)c(O)c1 [CP55,940]
capsaicin-, PGE2- and hypertonic saline-induced depolarization [3]: reduces
effect against acute and chronic pain from chemical, mechanical, and thermal pain stimuli [4]: effective
protection of RPE cells from oxidative damage [5]: significantly protects

CC(C)(CO)NC(=O)c1nn(-c2ccc(F)cc2F)c2c1C[C@H]1C[C@@H]21 [Compound 493, (1aR,5aR)-2-(2,4-Difluoro-phenyl)-1a,2,5,5a-tetrahydro-1H-2,3-diaza-cyclopropa[a]pentalene-4-carboxylic Acid (2-Hydroxy-1,1-dimethyl-ethyl)-amide]
paw withdrawal threshold (PWT) in comparison with vehicle [6]: Increase in paw withdrawal threshold (PWT)
time of maximum efficacy post-dosing ([7]; von Frey time course): 1 h
paw withdrawal threshold (PWT) in comparison with vehicle and gabapentin ([7]; 30, 60 and 180 minutes after dosing, FIG. 3): increase in paw withdrawal threshold (PWT)
paw withdrawal threshold (PWT) in comparison with the vehicle [8]: increase in paw withdrawal threshold (PWT)

CC(C)(C)[C@@H](CO)NC(=O)c1nn(-c2c[n+]([O-])ccn2)c2c1C[C@@H]1C[C@H]21 [Compound 699, (1aS,5aS)-2-(4-Oxy-pyrazin-2-yl)-1a,2,5,5a-tetrahydro-1H-2,3-diaza-cyclopropa[a]pentalene-4-carboxylic Acid ((S)-1-Hydroxymethyl-2,2-dimethyl-propyl)-amide]
analgesic efficacy (tactile allodynia, 50% withdrawal threshold) [9]: robust and sustained analgesic efficacy over 6 hours

CC(C)(NC(=O)c1nn(-c2c[n+]([O-])ccn2)c2c1C[C@@H]1C[C@H]21)C(F)(F)F [Compound 919, (1aS,5aS)-2-(4-Oxy-pyrazin-2-yl)-1a,2,5,5a-tetrahydro-1H-2,3-diaza-cyclopropa[a]pentalene-4-carboxylic acid (2,2,2-trifluoro-1,1-dimethyl-ethyl)-amide]
analgesic efficacy (tactile allodynia, 50% withdrawal threshold) [9]: robust and sustained analgesic efficacy over 6 hours

Cc1c(C(=O)NN2CCCCC2)nn(-c2ccc(Cl)cc2Cl)c1-c1ccc(Cl)cc1 [Compound S141716A, S141716A]
cutaneous inflammation and the pruritis (itch) associated with it [10]: exacerbates

COc1ccc2c(c1)c(CCN1CCOCC1)c(C)n2C(=O)c1cccc(Cl)c1Cl [GW405833]
hypersensitivity to mechanical stimuli ([1]; administered systemically): significantly reverses

CCCCCCC(C)(C)c1cc(O)c2c(c1)OC(C)(C)[C@@H]1CC=C(CO)C[C@@H]21 [HU-210]
IL-1alpha-stimulated proteoglycan and collagen degradation [11]: significantly inhibit
capsaicin-induced hyperalgesia and allodynia [12]: attenuates
histamine-induced responses [13]: reduces

CCCCCCC(C)(C)c1cc(OC)c([C@@H]2C=C(CO)[C@@H]3C[C@H]2C3(C)C)c(OC)c1 [HU-308]
endocortical osteoblast numbers and activity [14]: enhances
proliferation of osteoclast precursors [14]: inhibiting
ovariectomy-induced bone loss [15]: attenuates
recruitment of immature myeloid cells and T cells, microglial and infiltrating myeloid cell proliferation, and axonal loss ([16]; EAE model): markedly reduces

CCCn1c(C)c(C(=O)c2cccc3ccccc23)c2ccccc21 [JWH015]
protection of RPE cells from oxidative damage [5]: comparable protection

CCCC(C)(C)c1ccc2c(c1)OC(C)(C)[C@@H]1CC=C(C)C[C@@H]21 [JWH133]
capsaicin-, PGE2- and hypertonic saline-induced depolarization [3]: reduces
cough [17]: significantly reduces

CCCCCc1cc(O)c2c(c1)OC(C)(C)[C@@H]1CCC(C)=C[C@@H]21 [THC]
cutaneous inflammation and the pruritis (itch) associated with it [10]: reduces
progression of atherosclerosis ([18]; ApoE knockout mice): reduces
effect against acute and chronic pain from chemical, mechanical, and thermal pain stimuli [4]: effective
severity of clinical disease ([16]; EAE mouse model): significantly inhibits

Cc1c(C(=O)c2cccc3ccccc23)c2cccc3c2n1[C@H](CN1CCOCC1)CO3 [WIN 55212-2]
neuroprotection [19]: significant neuroprotection
IL-1alpha-stimulated proteoglycan and collagen degradation [11]: significantly inhibit
effect against acute and chronic pain from chemical, mechanical, and thermal pain stimuli [4]: effective
number of capsaicin-induced coughs [20]: dose-dependent inhibition
leukocyte rolling and adhesion in the brain ([16]; EAE mouse model): significantly inhibits

CCCCC/C=C\C/C=C\C/C=C\C/C=C\CCCC(=O)NCCCl [arachidonyl-2-chloroethylamide]
pain [21]: reduces

SR144528
cutaneous inflammation and the pruritis (itch) associated with it [10]: exacerbates
blockade of the THC effect on atherosclerosis ([18]; in vitro and in vivo): completely blocks
blockade of the WIN 55212-2 effect on leukocyte rolling and adhesion ([16]; EAE mouse model): blocked

From patent US11214548B2, “Cannabinoid receptor modulators” (priority 2009, dated 2022)
